# Assay results from patent US5110798A, “Purine derivatives having pharmacological action” (Co Pharma Corporation S.r.l., priority 1987, dated 1992).
# Test system: neurokinin receptors such as NK-P, NK-A and NK-B
# Settings: several in vitro models
compound,measurement,value
CSCC[C@H](NC(=O)[C@H](CC(C)C)NC(=O)CNC(=O)OCCCCCn1cnc2c(=O)[nH]cnc21)C(=O)O [Example 3],neurokinin-like activity,showed neurokinin-like activity
